Experimental findings from patent US20250059182A1, “SOS1 INHIBITORS” (Mirati Therapeutics, Inc., priority 2021, published 2025) are described below.

The target of test [1] is T1, recombinant human SOS1 polypeptide (amino acids 560-1049) (Homo sapiens, UniProt Q07889).
T1 construct: corresponding to amino acids 560-1049, expressed in E. Coli; made in house; host or cells: E. coli
T1 sequence (Q07889 560-1049): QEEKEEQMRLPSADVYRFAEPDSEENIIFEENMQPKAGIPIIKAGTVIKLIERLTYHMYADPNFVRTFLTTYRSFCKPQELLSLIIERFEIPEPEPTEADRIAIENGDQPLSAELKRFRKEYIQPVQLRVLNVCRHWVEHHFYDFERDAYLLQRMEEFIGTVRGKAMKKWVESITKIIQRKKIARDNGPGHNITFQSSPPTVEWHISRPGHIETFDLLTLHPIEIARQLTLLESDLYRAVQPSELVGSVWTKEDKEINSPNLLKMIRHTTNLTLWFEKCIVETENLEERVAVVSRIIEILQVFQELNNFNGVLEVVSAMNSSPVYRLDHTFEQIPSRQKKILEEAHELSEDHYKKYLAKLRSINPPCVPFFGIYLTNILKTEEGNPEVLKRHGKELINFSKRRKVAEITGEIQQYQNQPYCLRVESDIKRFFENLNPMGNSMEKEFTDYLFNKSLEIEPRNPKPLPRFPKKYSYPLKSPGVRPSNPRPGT
In words: HTRF displacement assay: inhibition of labeled tracer binding to SOS1. To be noted: Table A, Morrison equation for competitive binding. (TR-FRET usually uses a lanthanide donor and a delayed reading to cut background.)

Another test deals with pERK in MKN1 cells. Put plainly: pERK inhibition, In-Cell Western (LI-COR Odyssey), MKN1 cells. To be noted: Homo sapiens, MKN-1, Table B; MKN1 or H358 cells (table does not say which); 0.5-1 hour incubation; read-out: IC50 (nM), pERK inhibition. The test is classed as cell-based. In outline: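 MKN1 cells were exposed for about 0.5–1 h at 37 °C to nine 3-fold dilutions starting at 10 µM. Cells were then fixed in formaldehyde, permeabilised with methanol, and immunostained for pERK and GAPDH with near-infrared secondary antibodies. GAPDH-normalised pERK signal relative to vehicle gave % inhibition, from which IC50 was fitted.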

Structures are written as SMILES.

As for `CCN1CCN(c2cc3c(N[C@H](C)c4cccc(C#N)c4C)nnc(C)c3cn2)[C@@H](C)C1` [Example 1-14, 3-((R)-1-((7-((S)-4-ethyl-2-methylpiperazin-1-yl)-4-methylpyrido[3,4-d]pyridazin-1-yl)amino)ethyl)-2-methylbenzonitrile], the inhibition constant Ki in test [1] amounted to 0.788 nM. Also, in the test on pERK in MKN1 cells, the IC50 came to 53.9 nM.

In the case of `CCN1CCN(c2cc3c(N[C@H](C)c4cccc(C#N)c4C)nnc(C)c3cn2)[C@H](C)C1` [Example 1-15, 3-((R)-1-((7-((R)-4-ethyl-2-methylpiperazin-1-yl)-4-methylpyrido[3,4-d]pyridazin-1-yl)amino)ethyl)-2-methylbenzonitrile], the Ki in test [1] worked out at 0.789 nM. Further, the IC50 in the test on pERK in MKN1 cells was found to be 63.5 nM.

On to `Cc1c(C#N)cccc1[C@@H](C)Nc1nnc(C)c2cnc(N3CCN(C)C[C@H]3C)cc12` [Example 1-16, 3-((R)-1-((7-((R)-2,4-dimethylpiperazin-1-yl)-4-methylpyrido[3,4-d]pyridazin-1-yl)amino)ethyl)-2-methylbenzonitrile], for which, in test [1], the Ki amounted to 0.526 nM. In addition, the IC50 with pERK in MKN1 cells stood at 34.5 nM.

Regarding `Cc1c(C#N)cccc1[C@@H](C)Nc1nnc(C)c2cnc(N3CCN(C)C[C@@H]3C)cc12` [Example 1-17, 3-((R)-1-((7-((S)-2,4-dimethylpiperazin-1-yl)-4-methylpyrido[3,4-d]pyridazin-1-yl)amino)ethyl)-2-methylbenzonitrile], the Ki in test [1] came to 0.74 nM. For the same compound, the IC50 in the test with pERK in MKN1 cells is 42.6 nM.

Turning to `CCN1CCN(c2cc3c(N[C@H](C)c4cccc(C#N)c4C)nnc(C)c3cn2)C[C@@H]1C` [Example 1-18, 3-((R)-1-((7-((S)-4-ethyl-3-methylpiperazin-1-yl)-4-methylpyrido[3,4-d]pyridazin-1-yl)amino)ethyl)-2-methylbenzonitrile], in test [1], the Ki is 0.836 nM. Besides, the IC50 with pERK in MKN1 cells worked out at 35.9 nM.

For `Cc1c(C#N)cccc1[C@@H](C)Nc1nnc(C)c2cnc(N3CCC34CN(C)C4)cc12` [Example 1-19, (R)-2-methyl-3-(1-((4-methyl-7-(6-methyl-1,6-diazaspiro[3.3]heptan-1-yl)pyrido[3,4-d]pyridazin-1-yl)amino)ethyl)benzonitrile], in test [1], the Ki came to 0.601 nM. Further, the IC50 in the test on pERK in MKN1 cells stood at 32.2 nM.

Consider `Cc1nnc(N[C@H](C)c2cccc(C(F)(F)F)c2F)c2cc(N3CCC34CN(C)C4)ncc12` [Example 1-20, (R)-N-(1-(2-fluoro-3-(trifluoromethyl)phenyl)ethyl)-4-methyl-7-(6-methyl-1,6-diazaspiro[3.3]heptan-1-yl)pyrido[3,4-d]pyridazin-1-amine], for which the Ki in test [1] stood at 0.682 nM. In addition, in the test on pERK in MKN1 cells, the IC50 was 40.7 nM.

With `Cc1nnc(N[C@H](C)c2cccc(C(F)(F)F)c2F)c2cc(N3CCCC34CN(C)C4)ncc12` [Example 1-21, (R)-N-(1-(2-fluoro-3-(trifluoromethyl)phenyl)ethyl)-4-methyl-7-(2-methyl-2,5-diazaspiro[3.4]octan-5-yl)pyrido[3,4-d]pyridazin-1-amine], the Ki in test [1] is 0.249 nM. Further, the IC50 in the test on pERK in MKN1 cells stood at 25.5 nM.

Regarding `Cc1c(C#N)cccc1[C@@H](C)Nc1nnc(C)c2cnc(N3CCCC34CN(C)C4)cc12` [Example 1-22, (R)-2-methyl-3-(1-((4-methyl-7-(2-methyl-2,5-diazaspiro[3.4]octan-5-yl)pyrido[3,4-d]pyridazin-1-yl)amino)ethyl)benzonitrile], in test [1], the Ki is 0.248 nM. In addition, the IC50 in the test on pERK in MKN1 cells is 33.2 nM.

As to `Cc1nnc(N[C@H](C)c2cccc(C(F)(F)F)c2F)c2cc(N3CC4(CN(C)C4)C3)ncc12` [Example 1-23, (R)-N-(1-(2-fluoro-3-(trifluoromethyl)phenyl)ethyl)-4-methyl-7-(6-methyl-2,6-diazaspiro[3.3]heptan-2-yl)pyrido[3,4-d]pyridazin-1-amine], in test [1], the Ki was 0.21 nM. Moreover, in the test with pERK in MKN1 cells, the IC50 is 59.1 nM.

On to `Cc1c(C#N)cccc1[C@@H](C)Nc1nnc(C)c2cnc(N3CC4(CN(C)C4)C3)cc12` [Example 1-24, (R)-2-methyl-3-(1-((4-methyl-7-(6-methyl-2,6-diazaspiro[3.3]heptan-2-yl)pyrido[3,4-d]pyridazin-1-yl)amino)ethyl)benzonitrile], for which the Ki in test [1] was found to be 0.353 nM. Also, in the test on pERK in MKN1 cells, the 50% inhibitory concentration (IC50) was 40.3 nM.

In the case of `Cc1c(C#N)cccc1[C@@H](C)Nc1nnc(C)c2cnc(N3CCC4(CN(C)C4)C3)cc12` [Example 1-25, (R)-2-methyl-3-(1-((4-methyl-7-(2-methyl-2,6-diazaspiro[3.4]octan-6-yl)pyrido[3,4-d]pyridazin-1-yl)amino)ethyl)benzonitrile], in test [1], the Ki was 0.492 nM. For the same compound, the IC50 in the test with pERK in MKN1 cells turned out to be 68.6 nM.

For `Cc1nnc(N[C@H](C)c2cccc(C(F)(F)F)c2F)c2cc(N3CCC4(CN(C)C4)C3)ncc12` [Example 1-26, (R)-N-(1-(2-fluoro-3-(trifluoromethyl)phenyl)ethyl)-4-methyl-7-(2-methyl-2,6-diazaspiro[3.4]octan-6-yl)pyrido[3,4-d]pyridazin-1-amine], the inhibition constant (Ki) in test [1] amounted to 0.348 nM. In the test on pERK in MKN1 cells, the IC50 came to 30.8 nM.

As for `CCN1CC2(C1)CN(c1cc3c(N[C@H](C)c4cccc(C(F)(F)F)c4F)nnc(C)c3cn1)C2` [Example 1-27, (R)-7-(6-ethyl-2,6-diazaspiro[3.3]heptan-2-yl)-N-(1-(2-fluoro-3-(trifluoromethyl)phenyl)ethyl)-4-methylpyrido[3,4-d]pyridazin-1-amine], in test [1], the Ki is 0.27 nM. In the test with pERK in MKN1 cells, the IC50 came to 18.6 nM.

For `Cc1c([C@@H](C)Nc2nnc(C)c3cnc(N4CC5(CN(C)C5)C4)cc23)cccc1C(F)(F)F` [Example 1-32, (R)-4-methyl-N-(1-(2-methyl-3-(trifluoromethyl)phenyl)ethyl)-7-(6-methyl-2,6-diazaspiro[3.3]heptan-2-yl)pyrido[3,4-d]pyridazin-1-amine], the Ki in test [1] turned out to be 0.163 nM. Also, the IC50 in the test with pERK in MKN1 cells worked out at 32.3 nM.

In the case of `Cc1c(C#N)cccc1[C@@H](C)Nc1nnc(C)c2cnc(N3CCN(C4CC4)CC3)cc12` [Example 1-33, (R)-3-(1-((7-(4-cyclopropylpiperazin-1-yl)-4-methylpyrido[3,4-d]pyridazin-1-yl)amino)ethyl)-2-methylbenzonitrile], the inhibition constant Ki in test [1] was found to be 1.87 nM. For the same compound, the IC50 with pERK in MKN1 cells was found to be 87.8 nM.

With `Cc1c(C#N)cccc1[C@@H](C)Nc1nnc(C)c2cnc(N3C[C@@H]4C[C@H]3CN4C)cc12` [Example 1-34, 2-methyl-3-((R)-1-((4-methyl-7-((1S,4S)-5-methyl-2,5-diazabicyclo[2.2.1]heptan-2-yl)pyrido[3,4-d]pyridazin-1-yl)amino)ethyl)benzonitrile], the Ki in test [1] is 2.25 nM. Further, in the test on pERK in MKN1 cells, the IC50 worked out at 49.2 nM.

As for `Cc1c(C#N)cccc1[C@@H](C)Nc1nnc(C)c2cnc(N3C[C@H]4C[C@@H]3CN4C)cc12` [Example 1-35, 2-methyl-3-((R)-1-((4-methyl-7-((1R,4R)-5-methyl-2,5-diazabicyclo[2.2.1]heptan-2-yl)pyrido[3,4-d]pyridazin-1-yl)amino)ethyl)benzonitrile], in test [1], the Ki is 1.19 nM. In addition, the IC50 in the test on pERK in MKN1 cells worked out at 18.4 nM.

Consider `CCN1C[C@@H]2C[C@H]1CN2c1cc2c(N[C@H](C)c3cccc(C#N)c3C)nnc(C)c2cn1` [Example 1-36, 3-((R)-1-((7-((1S,4S)-5-ethyl-2,5-diazabicyclo[2.2.1]heptan-2-yl)-4-methylpyrido[3,4-d]pyridazin-1-yl)amino)ethyl)-2-methylbenzonitrile], for which the Ki in test [1] was found to be 3.43 nM. Further, the IC50 with pERK in MKN1 cells is 75.5 nM.

One may read the Ki as a dissociation constant, usually derived from enzyme kinetics or from competition with a known ligand. One may read the IC50 as the concentration needed to halve the response being measured.
